Experimental data taken from article PMC6262455 (Cells, 2018).
Read-outs that look alike come from different tables or passages of the source.

Assays:
Assay type in all cases: cell-based
[1] = system: normal murine embryonic fibroblast cell line (BALB/3T3); experiment: Antiproliferative SRB assay, 72 h, normal cells BALB/3T3; details: BALB/3T3, 72 h, mean ± SD
Description: (§1) The BALB/3T3 cell line was purchased from the American Type Culture Collection (ATCC, Manassas, VA, USA), A549 and MCF-7 cell lines—from European Collection of Authenticated Cell Cultures (Salisbury, UK). The LoVo cell line was purchased from the American Type Culture Collection (ATCC, Manassas, VA, USA), and LoVo/DX by courtesy of Prof. E. Borowski (Technical University of Gdańsk, Gdańsk, Poland). All the cell lines are maintained in the Institute of Immunology and Experimental Therapy (IIET), Wroclaw, Poland. The human lung adenocarcinoma cell line was cultured in a mixture of OptiMEM and RPMI 1640 (1:1) medium (IIET, Wroclaw, Poland), supplemented with 5% foetal bovine serum (GE Healthcare, Logan UT, USA) and 2 mM L-glutamine (Sigma-Aldrich, Merck KGaA, Saint Louis, MO, USA). Human breast adenocarcinoma cell line was cultured in mixture of Eagle’s medium (IIET, Wroclaw, Poland), supplemented with 10% fetal bovine serum, 2 mM L-glutamine, 8 μg/mL insulin, and 1% amino-acids (Sigma-Aldrich, Merck KGaA, Saint Louis, MO, USA). […] Murine embryonic fibroblast cells were cultured in Dulbecco medium (Life Technologies Limited, Paisley, UK), supplemented with 10% foetal bovine serum (GE Healthcare, Logan, UT, USA) and 2 mM glutamine (Sigma-Aldrich, Merck KGaA, Saint Louis, MO, USA). All culture media contained antibiotics: 100 U/mL penicillin and 100 μg/mL streptomycin (Polfa–Tarchomin, Warsaw, Poland). All cell lines were cultured during the entire experiment in a humid atmosphere at 37 °C and 5% CO2. […] The procedure was repeated every year or in the case of less frequently used lines: after thawing.
(§2) Twenty-four h before adding the tested compounds, all cell lines were seeded in 96-well plates (Sarstedt, Nümbrecht, Germany) in appropriate media with 10^4 cells per well. All cell lines were exposed to each tested agent at four different concentrations in the range 100–0.01 μg/mL for 72 h. […] Additionally, all cell lines were exposed to DMSO (solvent used for tested compounds) (POCh, Gliwice, Poland) at concentrations corresponding to these present in tested agents’ dilutions. After 72 h sulforhodamine B assay (SRB) was performed.
(§3) After 72 h of incubation with the tested compounds, cells were fixed in situ by gently adding 50 μL per well of cold 50% trichloroacetic acid TCA (POCh, Gliwice, Poland) and were incubated at 4 °C for one hour. Following, wells were washed four times with water and air dried. Next, 50 μL of 0.1% solution of sulforhodamine B (Sigma-Aldrich, Merck KGaA, Saint Louis, MO, USA) in 1% acetic acid (POCh, Gliwice, Poland) were added to each well and plates were incubated at room temperature for 0.5 h. After incubation time, unbound dye was removed by washing plates four times with 1% acetic acid whereas stain bound to cells was solubilized with 10 mM Tris base (Sigma-Aldrich, Merck KGaA, Saint Louis, MO, USA). Absorbance of each solution was read at Synergy H4 Hybrid Multi-Mode Microplate Reader (BioTek Instruments, Inc., Winooski, VT, USA) at the 540 nm wavelength.
(§4) IC50 values were calculated in Cheburator 0.4, Dmitry Nevozhay software (version 1.2.0 software by Dmitry Nevozhay, 2004–2014, http://www.cheburator.nevozhay.com, freely available) for each experiment. Compounds at each concentration were tested in triplicates in single experiment and each experiment was repeated at least three times independently. The Resistance Index (RI) was defined as the ratio of IC50 for a given compound calculated for resistant cell line to that measured for its parental drug sensitive cell line (Table 1).

[2] = system: doxorubicin-resistant human colon adenocarcinoma subline (LoVo/DX); experiment: cells; details: for IC50: LoVo/DX, 72 h, read-out: IC50 LoVo/DX; for RI (resistance index): RI = IC50 LoVo/DX / IC50 LoVo; for SI LoVo/DX: SI = IC50 BALB/3T3 / IC50 LoVo/DX
Description: as §1, §2, §3, §4

[3] = system: human breast adenocarcinoma (MCF-7); experiment: cells; details: for IC50: read-out: IC50 MCF-7; for SI MCF-7: SI = IC50 BALB/3T3 / IC50 MCF-7
Description: as §1, §2, §3, §4

[4] = system: human colon adenocarcinoma cell line (LoVo); experiment: cells; details: for IC50: LoVo, 72 h, read-out: IC50 LoVo; for SI LoVo: SI = IC50 BALB/3T3 / IC50 LoVo
Description: as §1, §2, §3, §4

[5] = system: human lung adenocarcinoma (A549); experiment: cells; details: for IC50: A549, 72 h, read-out: IC50 A549; for SI A549: SI = IC50 BALB/3T3 / IC50 A549
Description: as §1, §2, §3, §4

SMILES	IC50 [1] [nM]	IC50 ([2]; SRB, mean ± SD) [nM]	RI (resistance index) [2]	SI LoVo/DX [2]	IC50 ([3]; MCF-7, 72 h, SRB, mean ± SD) [nM]	SI MCF-7 [3]	IC50 ([4]; SRB, mean ± SD) [nM]	SI LoVo [4]	IC50 ([5]; SRB, mean ± SD) [nM]	SI A549 [5]	IC50 ([1]; Mus musculus) [nM]	IC50 ([2]; Homo sapiens) [nM]	IC50 ([3]; Homo sapiens, MCF7, 72 h) [nM]	IC50 ([4]; Homo sapiens) [nM]	IC50 ([5]; Homo sapiens) [nM]	IC50 ([2]; Homo sapiens, SRB, mean ± SD) [nM]	IC50 ([5]; Homo sapiens, SRB, mean ± SD) [nM]
N.N.[Cl][Pt][Cl] [Cisplatin, reference compound]	3900 ± 1500	5700 ± 630	1.3	0.68	10700 ± 753	0.36	4370 ± 730	0.89	6370 ± 1410	0.61	–	–	–	–	–	–	–
COc1c(Br)c2c(c(OC)c1OC)-c1ccc(OC)c(=O)cc1[C@@H](NC(C)=O)CC2 [Compound 2, 4-bromocolchicine]	–	–	18.45	0.09	–	5.26	–	1.69	–	1.35	142 ± 73	1550 ± 170	27 ± 8	84 ± 21	105 ± 8	–	–
COc1c(Br)c2c(c(OC)c1OC)-c1ccc(SC)c(=O)cc1[C@@H](NC(C)=O)CC2 [Compound 3, 4-bromothiocolchicine]	–	–	9.64	0.76	–	6.87	–	7.36	–	10.3	103 ± 89	135 ± 12	15 ± 2	14 ± 4	10 ± 0.1	–	–
COc1c(Br)c2c(c(OC)c1OC)-c1ccc(SC)c(=O)cc1[C@@H](N)CC2 [Compound 4, 4-bromo-N-deacetylthiocolchicine]	–	–	5.60	1.80	–	7.08	–	10.08	–	–	1260 ± 796	700 ± 88	178 ± 20	125 ± 44	115 ± 7	–	–
COc1c(Br)c2c(c(OC)c1OC)-c1ccc(SC)c(=O)cc1[C@@H](NC(=O)OCCO)CC2 [Compound 5]	–	–	13.65	0.10	–	1.82	–	1.41	–	1.41	104 ± 43	1010 ± 20	57 ± 11	74 ± 19	74 ± 9	–	–
COC(=O)N[C@H]1CCc2c(Br)c(OC)c(OC)c(OC)c2-c2ccc(SC)c(=O)cc21 [Compound 6]	–	–	–	–	–	–	–	–	–	–	66 ± 31	50 ± 10	–	7 ± 2	10 ± 0.1	–	–
CCOC(=O)N[C@H]1CCc2c(Br)c(OC)c(OC)c(OC)c2-c2ccc(SC)c(=O)cc21 [Compound 7]	–	–	6.45	1.44	–	5.67	–	–	–	–	102 ± 63	71 ± 10	18 ± 2	11 ± 4	12 ± 4	–	–
COc1c(Br)c2c(c(OC)c1OC)-c1ccc(SC)c(=O)cc1[C@@H](NC(=O)OCC(F)(F)F)CC2 [Compound 8]	–	–	4.11	1.86	–	2.51	–	–	–	–	138 ± 10	74 ± 7	55 ± 26	18 ± 10	30 ± 21	–	–
CCCOC(=O)N[C@H]1CCc2c(Br)c(OC)c(OC)c(OC)c2-c2ccc(SC)c(=O)cc21 [Compound 9]	–	–	6.55	1.61	–	4.30	–	–	–	–	116 ± 9	72 ± 11	27 ± 7	11 ± 0.1	12 ± 4	–	–
COc1c(Br)c2c(c(OC)c1OC)-c1ccc(SC)c(=O)cc1[C@@H](NC(=O)OC(C)C)CC2 [Compound 10]	–	–	–	1.94	–	1.31	–	3.20	–	1.94	173 ± 108	89 ± 26	132 ± 17	54 ± 17	89 ± 20	–	–
CCCCOC(=O)N[C@H]1CCc2c(Br)c(OC)c(OC)c(OC)c2-c2ccc(SC)c(=O)cc21 [Compound 11]	–	–	–	1.60	–	1.17	–	2.35	–	1.54	146 ± 14	91 ± 9	125 ± 14	62 ± 13	95 ± 5	–	–
COc1c(Br)c2c(c(OC)c1OC)-c1ccc(SC)c(=O)cc1[C@@H](NC(=O)OCCOCCO)CC2 [Compound 12]	–	–	15.09	0.03	–	1.08	–	0.48	–	–	135 ± 15	4240 ± 1330	125 ± 15	281 ± 185	93 ± 14	–	–
COc1cccc2c1C(=O)c1c(O)c3c(c(O)c1C2=O)C[C@@](O)(C(=O)CO)C[C@@H]3O[C@H]1C[C@H](N)[C@H](O)[C@H](C)O1 [Doxorubicin, reference compound]	–	–	–	–	–	–	–	–	–	–	166 ± 74	–	–	–	–	4750 ± 990	258 ± 44
